Like-named read-outs stand apart in the source and are kept apart here.
Key:
[1] = target: Rabbit Reticulocyte Lysate (eukaryotic protein synthesis); assay: Rabbit reticulocyte lysate luciferase assay (inhibition of eukaryotic protein synthesis); type: biochemical; details: read-out: Rabbit reticulocyte IC50 (μM/% inhib.)
Experimental: Inhibition of eukaryotic protein synthesis was determined using the Rabbit Reticulocyte Lysate System, Nuclease-Treated from Promega (catalog #L-4960) with slight modifications to the manufacturer's protocol. Compounds were serial diluted in 0.5 mL microcentrifuge tubes by mixing and transferring 50 μL from the highest concentration to 50 μL of water, mixing and transferring 50 μL of this 2-fold dilution to 50 μL of water. This mixing and transferring was repeated so that there are a total of 8 tubes with serial dilutions of compound at 10× the desired screening concentration that are ultimately diluted to 1× by the addition of rabbit reticulocyte luciferase synthesis mixture. Serial dilutions of compounds were added (2.5 μL) to wells in a black round bottom 96-well plate. Water (2.5 μL) was used as a “no inhibitor” control in 4 wells/plate. No RNA control reaction mixture (2 μL; see below) was used as a control in 4 wells/plate for background luminescence. Rabbit reticulocyte luciferase synthesis mixture (22.5 μL; see below) was added to wells with compounds or water mixture and incubated at 30° C. for 90 minutes. Luciferase assay reagent (25 μL) was added with luminescence measured using a BioTek Synergy HTX plate reader. % Inhibition was determined relative to no inhibitor controls.
Rabbit Reticulocyte Luciferase Synthesis Mixture:
• 1,000 μL rabbit reticulocyte lysate • 5.7 μL Luciferase Control RNA (1 μg/μL) • 26 μL complete amino acid mixture • 395 μL water • No RNA Control • 70 μL rabbit reticulocyte lysate • 2 μL complete amino acid mixture • 28 μL water Minimum Inhibitory Concentration (MIC)

[2] = test system: E. coli S30 extract (bacterial protein synthesis); assay: E. coli S30 extract coupled transcription-translation luciferase assay (inhibition of bacterial protein synthesis); type: biochemical; details: read-out: S30 IC50 (μM/% inhib.)
Experimental: E. coli S30 extract: Inhibition of bacterial protein synthesis was determined using the E. coli S30 Extract System for Circular DNA (Promega catalog #L-2010) and Luciferase Assay Reagent (Promega catalog #E1500) with slight modifications to a published protocol. Fyfe, C., Sutcliffe, J. A. and Grossman, T. H. (2012) “Development and characterization of a Pseudomonas aeruginosa in vitro coupled transcription-translation assay system for evaluation of translation inhibitors” J. Microbiol. Methods 90(3), 256-261.
Compounds were serial diluted in 0.5 mL microcentrifuge tubes by mixing and transferring 50 μL from the highest concentration to 50 μL of water, mixing and transferring 50 μL of this 2-fold dilution to 50 μL of water. This mixing and transferring was repeated so that there are a total of 8 tubes with serial dilutions of compound at 10× the desired screening concentration that are ultimately diluted to 1× by the addition of S30 luciferase synthesis mixture. Serial dilutions of compounds were added (2 μL) to wells in a black round bottom 96-well plate. Water (2 μL) was used as a “no inhibitor” control in 4 wells/plate. No DNA control reaction mixture (20 μL; see below) was used as a control in 4 wells/plate for background luminescence. S30 luciferase synthesis mixture (18 μL; see below) was added to wells with compounds or water mixture and incubated at 37° C. for 1 hour. Reactions were stopped by transferring to 4° C. refrigerator for 5 minutes then 25 μL of luciferase activity mix was added. Luminescence was measured using a BioTek Synergy HTX plate reader. % Inhibition was determined relative to no inhibitor controls. • S30 luciferase synthesis mixture: • 445 μL S30 extract, circular • 712 μL S30 Premix without amino acids • 4.45 μL pBESTluc™ DNA (1 μg/μL) • 78 μL complete amino acid mixture • 267 μL water • No DNA control: • 20 μL S30 extract, circular • 32 μL S30 Premix without amino acids • 7 μL complete amino acid mixture • 21 μL water Rabbit Reticulocyte lysate

E. coli (Ec) = assay: Broth microdilution minimum inhibitory concentration (MIC), CLSI; type: cell-based; details: for MIC: Escherichia coli, growth medium supplemented with sodium bicarbonate, read-out: E. coli + bicarb MIC
Experimental: (§1) A certified BSL-2 laboratory was used for testing. Compounds were evaluated using the broth microdilution minimum inhibitory concentration (MIC) and minimum bactericidal concentration (MBC) assays defined by Clinical and Laboratory Standards Institute (CLSI) in the M26-A guideline against S. aureus (Sa), E. coli (Ec), K. pneumoniae (Kp), A. baumannn (Ab), E. faecalis (Ef) and P. aeruginosa (Pa).
(§2) MICs were determined using the Clinical Laboratory and Standards Institute (CLSI) Broth Microdilution Method with slight modification. Clinical and Laboratory Standards Institute (2012). “Methods for dilution antimicrobial susceptibility tests for bacteria that grow aerobically; approved standard, 9th ed. M07-A9 Clinical and Laboratory Standards Institute, Wayne, PA” Serial two-fold dilutions of compounds are prepared in sterile clear round-bottom 96-well plates.
(§3) To prepare microdilution trays, two-fold dilutions of antimicrobial agent are prepared in growth medium: Cation-Adjusted Mueller-Hinton Broth (CAMHB), or CAMHB supplemented with sodium bicarbonate (6.25 or 25 mM final concentration prepared from a 1.0M stock solution) or CAMHB supplemented with heat inactivated human serum (Fisher Cat. #BP2657100) 0-50% by adding 200 µL of the highest concentration to be tested (64 μg/mL, for example) in row A, mixing and transferring 100 μL from row A to 100 μL growth medium in row B, then repeating the mixing and transferring through row H of the 96-well plate, discarding the excess […] remaining. This slight modification to the CLSI protocol enables evaluation of MICs for 3 compounds per plate in triplicate, albeit with only 8 compound dilutions (CLSI protocol enables 2 compounds in triplicate with 10 dilutions). Bacterial suspensions are added to a final concentration of 5×10^4 CFU/well by adding 5 μL of a 1:10 dilution of a 0.5 McFarland suspension (1×10^8 CFU/mL) for each bacterium evaluated. Bacterial suspensions were prepared using the growth method described by CLSI. Well-isolated colonies (3-5 from an agar plate) were selected using a sterile loop and used to inoculate a tube containing 4 mL of CAMHB. The cultures are incubated at 35±2° C. until it achieves or exceeds the turbidity of the 0.5 McFarland standard, determined by measuring A600 (usually two to six hours). When growth exceeds a 0.5 McFarland standard, the turbidity is adjusted with broth to be equivalent to a 0.5 McFarland standard.

E. faecalis (Ef) = assay: as above; type: cell-based; details: for MIC: Enterococcus faecalis, growth medium supplemented with sodium bicarbonate, read-out: Ef + bicarb MIC
Experimental: as §1, §2, §3

P. aeruginosa (Pa) = assay: as above; type: cell-based; details: for MIC: Pseudomonas aeruginosa, growth medium supplemented with sodium bicarbonate, read-out: Pa MIC + bicarb
Experimental: as §1, §2, §3

S. aureus (Sa) = assay: as above; type: cell-based; details: for MIC: Staphylococcus aureus, growth medium supplemented with sodium bicarbonate, read-out: Sa + bicarb MIC
Experimental: as §1, §2, §3

A. baumannn (Ab) = assay: as above; type: cell-based; details: for MIC: Acinetobacter baumannii, read-out: Ab + bicarb MIC
Experimental: as §1, §2, §3

[3] = class by IC50 or % inhibition @ 1 μM
[4] = growth medium with sodium bicarbonate

SMILES	IC50 [1, 3]	IC50 [2, 3]	MIC (E. coli (Ec))	MIC (E. faecalis (Ef))	MIC (P. aeruginosa (Pa))	MIC (S. aureus (Sa))	MIC (A. baumannn (Ab))	IC50 ([1]; % inhibition @ 1 μM)	IC50 ([2]; % inhibition @ 1 μM)	E. coli + bicarb MIC (E. coli (Ec); [4])	Ef + bicarb MIC (E. faecalis (Ef); [4])	Pa MIC + bicarb (P. aeruginosa (Pa); [4])	Sa + bicarb MIC (S. aureus (Sa); [4])	Ab + bicarb MIC (A. baumannn (Ab); A. baumannn, growth medium with sodium bicarbonate)
Cc1cc(-n2ccc(NC(=O)N3CCN(C(=O)C(C)(C)N)CC3)nc2=O)ccc1CCN1CC2CC2(CN)C1 (centres unmarked) [Compound 130]	≥ 1 µM	< 0.5 µM	< 8 µg/mL	< 8 µg/mL	8 to 32 µg/mL	< 8 µg/mL	8 to 32 µg/mL							
CC(Cc1ccc(-n2ccc(NC(=O)N3CCN(C(=O)C(C)(C)N)CC3)nc2=O)cc1)N1CCC2(CC(N)C2)C1 (centres unmarked) [Compound 238]								≥ 1 µM	0.5 to 1 µM	+++ (An MIC value (μg/mL) that is less than 8 μg/mL)	+ (An MIC (μg/mL) value that is 32 μg/mL or greater)	+ (An MIC (μg/mL) value that is 32 μg/mL or greater)	++ (An MIC value (μg/mL) that is 8 μg/mL or greater and less than 32 μg/mL)	+ (An MIC (μg/mL) value that is 32 μg/mL or greater)
C[C@@H]1CN(C(=O)[C@@](C)(N)CO)CCN1C(=O)Nc1ccn(-c2ccc(CN3C[C@@H]4[C@@H](N)[C@@H]4C3)cc2)c(=O)n1 [Compound 35]	≥ 1 µM	< 0.5 µM		8 to 32 µg/mL			> 32 µg/mL							
C[C@@H]1CN(C(=O)Nc2ccn(-c3ccc(CN4C[C@@H]5[C@@H](N)[C@@H]5C4)cc3)c(=O)n2)CCN1C(=O)C(C)(C)N [Compound 31]	≥ 1 µM	< 0.5 µM	< 8 µg/mL		> 32 µg/mL									
C[C@](N)(CO)C(=O)N1CCN(C(=O)Nc2ccn(-c3ccc(CN4CC5(CC(N)C5)C4)cc3)c(=O)n2)CC1 [Compound 36]	≥ 1 µM	< 0.5 µM	< 8 µg/mL	> 32 µg/mL	> 32 µg/mL		> 32 µg/mL							
C[C@](N)(CO)C(=O)N1CCN(C(=O)Nc2ccn(-c3cccc(CCN4C[C@@H]5[C@@H](N)[C@@H]5C4)c3)c(=O)n2)CC1 [Compound 89]		≥ 1 µM	8 to 32 µg/mL		> 32 µg/mL	> 32 µg/mL								
CC(C)(N)C(=O)N1CCN(C(=O)Nc2ccn(-c3ccc(CN4C[C@@H]5[C@@H](N)[C@@H]5C4)cc3)c(=O)n2)C(c2ccccc2)C1 (some centres unmarked) [Compound 27]	≥ 1 µM	< 0.5 µM	< 8 µg/mL		> 32 µg/mL	8 to 32 µg/mL								
CC(C)(N)C(=O)N1CCN(C(=O)Nc2ccn(-c3ccc(CCN4CCC5CC5(N)C4)cc3)c(=O)n2)CC1 (centres unmarked) [Compound 93]	≥ 1 µM	< 0.5 µM	< 8 µg/mL	< 8 µg/mL	< 8 µg/mL		> 32 µg/mL							
CC(C)(N)C(=O)N1CCN(C(=O)Nc2ccn(-c3ccc(CN4CC5(CCNCC5)C4)cc3)c(=O)n2)CC1 [Compound 81]	≥ 1 µM	< 0.5 µM	< 8 µg/mL		> 32 µg/mL	8 to 32 µg/mL	> 32 µg/mL							
C[C@](N)(CO)C(=O)N1CCN(C(=O)Nc2ccn(-c3ccc(CN4C[C@@H]5[C@@H](N)[C@@H]5C4)cc3)c(=O)n2)CC1 [Compound 4]	≥ 1 µM	< 0.5 µM	< 8 µg/mL	< 8 µg/mL	> 32 µg/mL		> 32 µg/mL							
CC(C)(N)C(=O)N1CCN(C(=O)Nc2ccn(-c3ccc(CN4CCC5(CCC5N)CC4)cc3)c(=O)n2)CC1 (centres unmarked) [Compound 38]	≥ 1 µM	< 0.5 µM		8 to 32 µg/mL			> 32 µg/mL							
CC(C)(N)C(=O)N1CCN(C(=O)Nc2ccn(-c3ccc(CN4C[C@@H]5[C@@H](N)[C@@H]5C4)c(Cl)c3)c(=O)n2)CC1 [Compound 7]	≥ 1 µM	< 0.5 µM	< 8 µg/mL		> 32 µg/mL									
C[C@](N)(CO)C(=O)N1CCN(C(=O)Nc2ccn(-c3ccc(CN4CCC5(CC4)CC(N)C5)cc3)c(=O)n2)CC1 [Compound 37]	≥ 1 µM	< 0.5 µM	< 8 µg/mL		8 to 32 µg/mL									
CC(C)(N)C(=O)N1CCN(C(=O)Nc2ccn(-c3ccc(CN4CC5(CNC5)C4)cc3)c(=O)n2)CC1 [Compound 46]	≥ 1 µM	< 0.5 µM	< 8 µg/mL	> 32 µg/mL	> 32 µg/mL	8 to 32 µg/mL								
CC(C)(N)C(=O)N1CCN(C(=O)Nc2ccn(-c3ccc(CCN4CCC5(CC4)CC(N)C5)cc3)c(=O)n2)CC1 [Compound 91]	≥ 1 µM	< 0.5 µM	< 8 µg/mL		< 8 µg/mL									

From US12692253B2, “Antimicrobial compounds and methods” (Curza Global, LLC, priority 2019, dated 2026)
